The values below come from BindingDB's records for doi:10.1016/j.bmcl.2013.05.024 (Janssen Research and Development, 2014).

The assay can be described thus: Antagonist activity at CCR2 receptor in human THP1 cells assessed as inhibition of MCP-1 induced chemotaxis after 3 hrs.
Take `COC1COCCC1N[C@@H]1C[C@H]2CN(C(=O)OCCN3CCOCC3)C[C@@]2(C(=O)N2CCc3ncc(C(F)(F)F)cc3C2)C1` (some centres undefined): the concentration for half-maximal inhibition (IC50) (as a rule, the point on the concentration scale where inhibition reaches its midpoint) is 97 nM. Consider `COC1COCCC1N[C@@H]1C[C@H]2CN(C(=O)OCCN3CCCC3)C[C@@]2(C(=O)N2CCc3ncc(C(F)(F)F)cc3C2)C1` (some centres undefined), for which the concentration for half-maximal inhibition (IC50) came to 28 nM. Consider `COC1COCCC1N[C@@H]1C[C@H]2CN(C(=O)OCCNC(C)=O)C[C@@]2(C(=O)N2CCc3ncc(C(F)(F)F)cc3C2)C1` (some centres undefined), for which the IC50 worked out at 18 nM. Consider `COC1COCCC1N[C@@H]1C[C@H]2CN(C(=O)OCC3CCOCC3)C[C@@]2(C(=O)N2CCc3ncc(C(F)(F)F)cc3C2)C1` (some centres undefined), for which the 50% inhibitory concentration (IC50) amounted to 65 nM. As for `COCCOC(=O)N1C[C@@H]2C[C@@H](NC3CCOCC3OC)C[C@]2(C(=O)N2CCc3ncc(C(F)(F)F)cc3C2)C1` (some centres undefined), the half-inhibitory concentration (IC50) turned out to be 41 nM. Take `COC1COCCC1N[C@@H]1C[C@H]2CN(C(=O)OCC(C)C)C[C@@]2(C(=O)N2CCc3ncc(C(F)(F)F)cc3C2)C1` (some centres undefined): the IC50 turned out to be 21 nM. As for `COC1COCCC1N[C@@H]1C[C@H]2CN(C(=O)OCC(C)(C)C)C[C@@]2(C(=O)N2CCc3ncc(C(F)(F)F)cc3C2)C1` (some centres undefined), the figure is 99 nM; as for `COC1COCCC1N[C@@H]1C[C@H]2CN(C(=O)OCc3ccccc3)C[C@@]2(C(=O)N2CCc3ncc(C(F)(F)F)cc3C2)C1` (some centres undefined), 190 nM.

For the compound `COC1COCCC1N[C@@H]1C[C@H]2CN(C(=O)Oc3ccccc3)C[C@@]2(C(=O)N2CCc3ncc(C(F)(F)F)cc3C2)C1` (some centres undefined), the 50% inhibitory concentration (IC50) is 950 nM. As for `COC(=O)N1C[C@@H]2C[C@@H](NC3CCOCC3OC)C[C@]2(C(=O)N2CCc3ncc(C(F)(F)F)cc3C2)C1` (some centres undefined), the figure is 69 nM; as for `COC1COCCC1N[C@@H]1C[C@H]2CN(C(N)=NC#N)C[C@@]2(C(=O)N2CCc3ncc(C(F)(F)F)cc3C2)C1` (some centres undefined), 29 nM; as for `COC1COCCC1N[C@@H]1C[C@H]2CN(C(=O)NCc3ccccc3)C[C@@]2(C(=O)N2CCc3ncc(C(F)(F)F)cc3C2)C1` (some centres undefined), 220 nM. The figure for `COC1COCCC1N[C@@H]1C[C@H]2CN(C(=O)NC(C)C)C[C@@]2(C(=O)N2CCc3ncc(C(F)(F)F)cc3C2)C1` (some centres undefined) is 81 nM.

Regarding `CNC(=O)N1C[C@@H]2C[C@@H](NC3CCOCC3OC)C[C@]2(C(=O)N2CCc3ncc(C(F)(F)F)cc3C2)C1` (some centres undefined), the IC50 worked out at 71 nM. On to `COC1COCCC1N[C@@H]1C[C@H]2CN(C(N)=O)C[C@@]2(C(=O)N2CCc3ncc(C(F)(F)F)cc3C2)C1` (some centres undefined), for which the IC50 is 27 nM.

Regarding `COC1COCCC1N[C@@H]1C[C@H]2CN(C(=O)C#CC3CC3)C[C@@]2(C(=O)N2CCc3ncc(C(F)(F)F)cc3C2)C1` (some centres undefined), the IC50 worked out at 39 nM. As for `COC1COCCC1N[C@@H]1C[C@H]2CN(C(=O)/C=C/C(C)(C)C)C[C@@]2(C(=O)N2CCc3ncc(C(F)(F)F)cc3C2)C1` (some centres undefined), the figure is 88 nM. As for `COC1COCCC1N[C@@H]1C[C@H]2CN(C(C)=O)C[C@@]2(C(=O)N2CCc3ncc(C(F)(F)F)cc3C2)C1` (some centres undefined), the figure is 230 nM; as for `COC1COCCC1N[C@@H]1C[C@H]2CN(c3ccccc3)C[C@@]2(C(=O)N2CCc3ncc(C(F)(F)F)cc3C2)C1` (some centres undefined), 90 nM.
